Results reported in US20230085307A1, “PYRIDAZINONE COMPOUND AND HERBICIDE” (NISSAN CHEMICAL CORPORATION, priority 2019, published 2023).

What was measured:
redroot pigweed = assay: Test Example 5: herbicidal effect by foliage application, plastic box (Table 20, symbol N); assay type: in vivo, redroot pigweed (Amaranthus retroflexus); settings: for herbicidal effect on N: redroot pigweed (evaluation grade 0-5): foliage application after 14-day growth; for N: redroot pigweed, herbicidal effect grade: three weeks after application
Outline: (§1)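 Sow seeds spot-wise in sterilized diluvial soil; cover with ~1.5 cm soil. Grow 14 days in greenhouse, 25° C. to 30° C. Spray foliage with emulsion diluted to predetermined amount. Rate effect after 3 weeks.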

oval-leafed pondweed = assay: Test Example 1: herbicidal activity, application before weed generation under submerged conditions (Table 16, symbol C); assay type: in vivo, oval-leafed pondweed (Monochoria vaginalis); settings: amount of applied herbicide 320 g/ha
Outline: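 Submerged Wagner pots (alluvial soil, 4 cm water) sown with weed seeds and planted with 2.5-leaf rice seedlings; emulsifiable concentrate diluted in water applied to water surface on sowing day. Held in greenhouse at 25-30 °C; injury scored 0-5 by herbicidal rate after three weeks.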

chickweed = assay: Test Example 4: herbicidal effect by soil treatment (Table 19, symbol P); assay type: in vivo, common chickweed (Stellaria media); settings: amount of applied herbicide 320 g/ha
Outline: (§2)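 Applied as a water-diluted emulsion, the compound was sprayed onto soil covering newly sown seeds. Evaluation came three weeks after application, in a greenhouse held at 25° C. to 30° C.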

Chinese sprangletop = assay: Test Example 3: herbicidal effect by foliage application, Wagner pot (Table 18, symbol D); assay type: in vivo, chinese sprangletop (Leptochloa chinensis); settings: for herbicidal effect on Chinese sprangletop (D): 320 g/ha
Outline: (§3)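 Plants were sown in alluvial soil held under 0.1–0.5 cm standing water and grown 14 days in a greenhouse at 25–30 °C. An emulsifiable formulation, water-diluted to the set dose, was then sprayed onto the foliage, and effects were scored three weeks later using previously defined criteria.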

southern crabgrass = assay: Test Example 4: herbicidal effect by soil treatment (Table 19, symbol F); assay type: in vivo, southern crabgrass (Digitaria ciliaris); settings: amount of applied herbicide 320 g/ha
Outline: as §2

windgrass = assay: Test Example 4: herbicidal effect by soil treatment (Table 19, symbol L); assay type: in vivo, windgrass (Apera spica-venti); settings: amount of applied herbicide 320 g/ha
Outline: as §2

lambsquarters = assay: Test Example 5: herbicidal effect by foliage application, plastic box (Table 20, symbol O); assay type: in vivo, lambsquarters (Chenopodium album); settings: for herbicidal effect on O: lambsquarters (evaluation grade 0-5): foliage application after 14-day growth; for O: lambsquarters, herbicidal effect grade: three weeks after application
Outline: as §1

barnyard grass [1] = assay: Test Example 3: herbicidal effect by foliage application, Wagner pot (Table 18, symbol H); assay type: in vivo, barnyard grass (Echinochloa crus-galli); settings: for herbicidal effect on barnyard grass (H): 320 g/ha
Outline: as §3

rice flat sedge = assay: Test Example 3: herbicidal effect by foliage application, Wagner pot (Table 18, symbol E); assay type: in vivo, rice flat sedge (Cyperus iria); settings: for herbicidal effect on rice flat sedge (E): 320 g/ha
Outline: as §3

barnyard grass [2] = assay: Test Example 4: herbicidal effect by soil treatment (Table 19, symbol H); assay type: in vivo, barnyard grass (Echinochloa crus-galli); settings: amount of applied herbicide 320 g/ha
Outline: as §2

late watergrass = assay: Test Example 2: herbicidal activity, application during weed generation under submerged conditions (Table 17, symbol A); assay type: in vivo, late watergrass (Echinochloa oryzicola); settings: for herbicidal effect rating, A: late watergrass: AAH 320 g/ha, application during weed generation, submerged conditions
Outline: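 Steps: fill Wagner pots with alluvial soil; add water to give 4 cm depth; sow the species mixed; grow under glass at 25–30° C.; at 1–2 leaves apply water-diluted emulsion formulation to the water surface at a fixed herbicide amount; score after 3 weeks.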

persian speedwell = assay: Test Example 5: herbicidal effect by foliage application, plastic box (Table 20, symbol R); assay type: in vivo, Persian speedwell (Veronica persica); settings: for herbicidal effect on R: persian speedwell (evaluation grade 0-5): foliage application after 14-day growth; for R: persian speedwell, herbicidal effect grade: three weeks after application
Outline: as §1

[3] = 320 g/ha, evaluated three weeks after application
[4] = foliage application, 320 g/ha, evaluated 3 weeks after application
[5] = amount of applied herbicide 320 g/ha
[6] = foliage application, AAH 320 g/ha, evaluated three weeks after application

Row | SMILES | Herbicidal effect, C: oval-leafed pondweed (oval-leafed pondweed) | Herbicidal effect by soil treatment, P: chickweed (chickweed) | herbicidal effect on Chinese sprangletop (D) (Chinese sprangletop) | Herbicidal effect by soil treatment, F: southern crabgrass (southern crabgrass) | Herbicidal effect by soil treatment, L: windgrass (windgrass) | herbicidal effect on barnyard grass (H) (barnyard grass [1]) | herbicidal effect on rice flat sedge (E) (rice flat sedge) | Herbicidal effect by soil treatment, H: barnyard grass (barnyard grass [2]) | herbicidal effect rating, A: late watergrass (late watergrass) | N: redroot pigweed, herbicidal effect grade (redroot pigweed; foliage application, 320 g/ha) | O: lambsquarters, herbicidal effect grade (lambsquarters; foliage application, 320 g/ha) | R: persian speedwell, herbicidal effect grade (persian speedwell; foliage application, 320 g/ha) | P: chickweed, herbicidal effect grade (chickweed) | F: southern crabgrass, herbicidal effect grade (southern crabgrass) | L: windgrass, herbicidal effect grade (windgrass) | H: barnyard grass, herbicidal effect grade (barnyard grass [2]) | other results
1 | CCCOc1ccc(-c2sc3c(F)cccc3c2-c2c(OC(=O)CCC)c(C)nn(C)c2=O)cc1 [4-010] | 3 (Herbicidal rate of 40% or more and less than 70%) | 3 (Herbicidal rate of 40% or more and less than 70%) | 4 (Herbicidal rate of 70% or more and less than 90%) | 0 (Herbicidal rate of 5% or less (almost no effect)) | 0 (Herbicidal rate of 5% or less (almost no effect)) | 5 (Herbicidal rate of 90% or more (almost completely withered)) | 5 (Herbicidal rate of 90% or more (almost completely withered)) | 0 (Herbicidal rate of 5% or less (almost no effect)) | 4 (Herbicidal rate of 70% or more and less than 90%) |  |  |  |  |  |  |  | herbicidal effect on N: redroot pigweed (evaluation grade 0-5) (redroot pigweed; [3]): 5 (Herbicidal rate of 90% or more (almost completely withered)); herbicidal effect on O: lambsquarters (evaluation grade 0-5) (lambsquarters; [3]): 5 (Herbicidal rate of 90% or more (almost completely withered)); herbicidal effect on R: persian speedwell (evaluation grade 0-5) (persian speedwell; [3]): 5 (Herbicidal rate of 90% or more (almost completely withered))
2 | CCCC(=O)Oc1c(C)nn(C)c(=O)c1-c1c(-c2ccc(C(F)(F)F)cc2)sc2cc(F)ccc12 [3-140] | 3 (Herbicidal rate of 40% or more and less than 70%) | 0 (Herbicidal rate of 5% or less (almost no effect)) | 4 (Herbicidal rate of 70% or more and less than 90%) | 0 (Herbicidal rate of 5% or less (almost no effect)) | 0 (Herbicidal rate of 5% or less (almost no effect)) | 5 (Herbicidal rate of 90% or more (almost completely withered)) | 5 (Herbicidal rate of 90% or more (almost completely withered)) | 0 (Herbicidal rate of 5% or less (almost no effect)) | 3 (Herbicidal rate of 40% or more and less than 70%) | 5 (Herbicidal rate of 90% or more (almost completely withered)) | 4 (Herbicidal rate of 70% or more and less than 90%) | 5 (Herbicidal rate of 90% or more (almost completely withered)) |  |  |  |  | 
3 | CCCCOc1ccc2c(-c3c(O)c(C)nn(C)c3=O)c(-c3ccccc3OC)sc2c1 [3-105] | 5 (Herbicidal rate of 90% or more (almost completely withered)) |  | 5 (Herbicidal rate of 90% or more (almost completely withered)) |  |  | 5 (Herbicidal rate of 90% or more (almost completely withered)) | 4 (Herbicidal rate of 70% or more and less than 90%) |  | 3 (Herbicidal rate of 40% or more and less than 70%) | 5 (Herbicidal rate of 90% or more (almost completely withered)) | 5 (Herbicidal rate of 90% or more (almost completely withered)) | 5 (Herbicidal rate of 90% or more (almost completely withered)) | 3 (Herbicidal rate of 40% or more and less than 70%) | 0 (Herbicidal rate of 5% or less (almost no effect)) | 4 (Herbicidal rate of 70% or more and less than 90%) | 0 (Herbicidal rate of 5% or less (almost no effect)) | 
4 | CCSc1ccc(-c2oc3ccc(C)cc3c2-c2c(O)c(C)nn(C)c2=O)cc1 [9-057] | 4 (Herbicidal rate of 70% or more and less than 90%) |  |  |  |  |  |  |  |  |  |  |  | 5 (Herbicidal rate of 90% or more (almost completely withered)) | 5 (Herbicidal rate of 90% or more (almost completely withered)) | 0 (Herbicidal rate of 5% or less (almost no effect)) | 3 (Herbicidal rate of 40% or more and less than 70%) | N (redroot pigweed) herbicidal effect grade (redroot pigweed; [4]): 5 (Herbicidal rate of 90% or more (almost completely withered)); Herbicidal effect on D (Chinese sprangletop), foliage application (Chinese sprangletop; [5]): 3 (Herbicidal rate of 40% or more and less than 70%); O (lambsquarters) herbicidal effect grade (lambsquarters; [4]): 5 (Herbicidal rate of 90% or more (almost completely withered)); Herbicidal effect on H (barnyard grass), foliage application (barnyard grass [1]; [5]): 5 (Herbicidal rate of 90% or more (almost completely withered)); Herbicidal effect on E (rice flat sedge), foliage application (rice flat sedge; [5]): 5 (Herbicidal rate of 90% or more (almost completely withered)); herbicidal effect grade, A: late watergrass (late watergrass; application during weed generation under submerged conditions, amount of applied herbicide 320 g/ha): 5 (Herbicidal rate of 90% or more (almost completely withered)); R (persian speedwell) herbicidal effect grade (persian speedwell; [4]): 5 (Herbicidal rate of 90% or more (almost completely withered))
5 | COc1ccccc1-c1sc2cc(OC(F)F)ccc2c1-c1c(O)c(C)nn(C)c1=O [3-113] | 2 (Herbicidal rate of 20% or more and less than 40%) |  | 3 (Herbicidal rate of 40% or more and less than 70%) |  |  | 5 (Herbicidal rate of 90% or more (almost completely withered)) | 5 (Herbicidal rate of 90% or more (almost completely withered)) |  | 0 (Herbicidal rate of 5% or less (almost no effect)) | 5 (Herbicidal rate of 90% or more (almost completely withered)) | 5 (Herbicidal rate of 90% or more (almost completely withered)) | 5 (Herbicidal rate of 90% or more (almost completely withered)) | 5 (Herbicidal rate of 90% or more (almost completely withered)) | 4 (Herbicidal rate of 70% or more and less than 90%) | 5 (Herbicidal rate of 90% or more (almost completely withered)) | 5 (Herbicidal rate of 90% or more (almost completely withered)) | 
6 | Cc1nn(C)c(=O)c(-c2c(-c3cnccc3C(F)(F)F)sc3ccc(F)cc23)c1O [2-387] | 0 (Herbicidal rate of 5% or less (almost no effect)) |  |  |  |  |  |  |  | 4 (Herbicidal rate of 70% or more and less than 90%) |  |  |  |  |  |  |  | N: redroot pigweed, herbicidal effect (criteria 0-5) (redroot pigweed; [6]): 5 (Herbicidal rate of 90% or more (almost completely withered)); herbicidal effect, P: chickweed (chickweed): 4 (Herbicidal rate of 70% or more and less than 90%); herbicidal effect on D: Chinese sprangletop (Chinese sprangletop; [5]): 5 (Herbicidal rate of 90% or more (almost completely withered)); herbicidal effect, F: southern crabgrass (southern crabgrass): 3 (Herbicidal rate of 40% or more and less than 70%); herbicidal effect, L: windgrass (windgrass): 3 (Herbicidal rate of 40% or more and less than 70%); O: lambsquarters, herbicidal effect (criteria 0-5) (lambsquarters; [6]): 5 (Herbicidal rate of 90% or more (almost completely withered)); herbicidal effect on H: barnyard grass (barnyard grass [1]; [5]): 5 (Herbicidal rate of 90% or more (almost completely withered)); herbicidal effect on E: rice flat sedge (rice flat sedge; [5]): 5 (Herbicidal rate of 90% or more (almost completely withered)); R: persian speedwell, herbicidal effect (criteria 0-5) (persian speedwell; [6]): 5 (Herbicidal rate of 90% or more (almost completely withered))
7 | CCCC(=O)Oc1c(C)nn(C)c(=O)c1-c1c(-c2ccc(OC(F)(F)F)cc2)sc2cc(F)ccc12 [3-144] | 0 (Herbicidal rate of 5% or less (almost no effect)) | 0 (Herbicidal rate of 5% or less (almost no effect)) | 4 (Herbicidal rate of 70% or more and less than 90%) | 1 (Herbicidal rate of 5% or more and less than 20%) | 0 (Herbicidal rate of 5% or less (almost no effect)) | 5 (Herbicidal rate of 90% or more (almost completely withered)) | 5 (Herbicidal rate of 90% or more (almost completely withered)) | 3 (Herbicidal rate of 40% or more and less than 70%) | 2 (Herbicidal rate of 20% or more and less than 40%) |  |  |  |  |  |  |  | herbicidal effect on N: redroot pigweed (evaluation grade 0-5) (redroot pigweed; [3]): 5 (Herbicidal rate of 90% or more (almost completely withered)); herbicidal effect on O: lambsquarters (evaluation grade 0-5) (lambsquarters; [3]): 5 (Herbicidal rate of 90% or more (almost completely withered)); herbicidal effect on R: persian speedwell (evaluation grade 0-5) (persian speedwell; [3]): 5 (Herbicidal rate of 90% or more (almost completely withered))
